Measured values published in article PMC8151276, “An Integrated Approach toward NanoBRET Tracers for Analysis of GPCR Ligand Engagement” (Molecules, 2021).

Target: T1, LGR4 (Homo sapiens, UniProt Q9BXB1)
T1 construct: purchased Promega (in-house HiBiT-GPCR construct library, NanoBRET)
T1 sequence (Q9BXB1 25-951): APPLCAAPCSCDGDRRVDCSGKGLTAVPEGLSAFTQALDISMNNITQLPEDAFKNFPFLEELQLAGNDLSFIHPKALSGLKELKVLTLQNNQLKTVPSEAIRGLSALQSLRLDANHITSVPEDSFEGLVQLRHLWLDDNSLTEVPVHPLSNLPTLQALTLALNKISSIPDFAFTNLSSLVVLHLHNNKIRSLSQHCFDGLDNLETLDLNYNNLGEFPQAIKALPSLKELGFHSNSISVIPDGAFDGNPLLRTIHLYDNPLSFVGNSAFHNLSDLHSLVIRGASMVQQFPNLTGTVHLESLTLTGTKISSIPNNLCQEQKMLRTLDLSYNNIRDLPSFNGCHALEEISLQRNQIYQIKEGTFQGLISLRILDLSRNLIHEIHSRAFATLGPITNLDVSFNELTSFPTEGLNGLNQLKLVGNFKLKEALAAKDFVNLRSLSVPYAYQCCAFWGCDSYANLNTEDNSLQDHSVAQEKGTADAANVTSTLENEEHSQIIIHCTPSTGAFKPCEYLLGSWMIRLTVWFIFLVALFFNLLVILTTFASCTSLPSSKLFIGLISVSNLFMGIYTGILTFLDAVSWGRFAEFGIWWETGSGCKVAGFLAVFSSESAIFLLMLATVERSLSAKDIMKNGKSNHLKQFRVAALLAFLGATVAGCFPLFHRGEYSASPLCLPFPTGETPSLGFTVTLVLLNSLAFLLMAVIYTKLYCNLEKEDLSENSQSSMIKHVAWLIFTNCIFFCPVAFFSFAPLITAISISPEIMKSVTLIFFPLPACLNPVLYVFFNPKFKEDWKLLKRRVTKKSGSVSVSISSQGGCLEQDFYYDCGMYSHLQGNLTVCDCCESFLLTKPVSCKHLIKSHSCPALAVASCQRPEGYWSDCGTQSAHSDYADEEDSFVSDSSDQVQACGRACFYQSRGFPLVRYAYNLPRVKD
Experiment: NanoBRET screen HiBiT-LGR4 in HEK293
Type: binding
Protocol: Each tracer candidate was screened across the entire library of HiBiT-GPCR constructs using NanoBRET as the detection modality. As depicted in Figure 4A, the specificity of interactions was evaluated through decrease in BRET due to competitive displacement of a bound tracer by excess parental compound. Each tracer was analyzed for binding to each HiBiT-GPCR fusion in the absence and in the presence of competing parental compound. Briefly, HEK293 cells were transfected with HiBiT-GPCR constructs diluted into promoterless DNA to reduce expression and maximize translocation to the cell surface. Each tracer candidate was then screened at concentrations of 1 μM and 0.1 μM across cells expressing these fusions. Cells were treated for 1.5 h with tracer either alone or in the presence of 20 μM competing parental compound (i.e., control). BRET was measured upon addition of purified LgBiT and subsequent complementation with HiBiT genetically fused to a GPCR. The specificity of interactions was assessed through a decrease in BRET signal due to competitive displacement of the bound tracer. To further gauge the robustness of these interactions, the fold response over the control (i.e., BRETtracer/BRETcontrol) was calculated. We chose a 1.5-fold response, which translates to ≥7-fold signal over noise as the minimal threshold required to score an interaction as positive. […]. Below we highlight the screening results obtained for our exemplary fluorescent tracers based on Clozapine, Amitriptyline and AZD1283.
HiBiT-GPCR DNA constructs were diluted in 10 mM Tris pH 8 to a final concentration of 0.01 μg/μL, arrayed in 96-well plates and stored at −20 °C. For transfection, HEK293 cells were suspended in Opti-MEM (without phenol red) supplemented with 2% fetal bovine serum (Seradigm) and 100 units/mL penicillin–streptomycin (Gibco) at a final concentration of 220,000 cells/mL and dispensed into white 96-well plates at 90 μL/well. Subsequent transfections and screens were carried using an Agilent Bravo Automated Liquid Handling Platform. First, the 96-well HiBiT DNA arrays were diluted 25-fold in Opti-MEM (without serum or phenol red) to a final concentration of 0.0004 μg/μL and 20 μL of the diluted DNAs were transferred into new 96-well plates. Next, promoterless carrier DNA (1 μg/μL) was diluted 25-fold (0.04 μg/μL) and then dispensed into the diluted arrays at 20 μL/well. Following brief mixing, Viafect transfection reagent (Promega) diluted 16-fold into Opti-MEM was dispensed into the plates at 40 μL/well. After mixing by pipetting, plates were incubated for 10 min on the pipetting station deck. The DNA-transfection reagent complexes were then added to plates containing cells. To facilitate the screen, 10 μL of DNA-transfection reagent complexes were added in duplicates to the top 4 and bottom 4 rows, resulting in two identical 48-well arrays per plate. Plates with transfected cells were incubated for 18–20 h at 37 °C/5% CO2. A screen of each tracer across the entire library using two different concentrations requires duplicate plates of transfected cells. Depending on the number of tracers being screened, transfections can be scaled up using the same ratios. The next day, for each tracer, four 20× screening solutions in tracer dilution buffer (Promega) were prepared: two duplicates at final concentration of 20 μM and two duplicates at a final concentration of 2 μM. A competing unmodified compound was added to one of each duplicate at a final concentration of 400 μM. The four resulting solutions were diluted 4-fold in Opti-MEM without serum or phenol red to generate 5× solutions (5 µM and 0.5 µM tracer +/− 100 μM competing compound). To screen the library, a BioTek MultiFlo FX liquid dispenser was used to dispense 22.5 µL of tracer solution to the top 4 rows and 22.5 µL tracer + competing compound solution to the 4 bottom rows. Plates were briefly mixed on an orbital shaker and incubated for 1.5 h at room temperature. […]

| Compound | NanoBRET Fold Response (LGR4, tracer 0.1μM) | NanoBRET Fold Response (LGR4, tracer 1μM) | further results |
| --- | --- | --- | --- |
| Cc1nc2n(c(=O)c1CCN1CCC(c3noc4cc(F)ccc34)CC1)CCCC2OC(=O)NCCOCCOCCOCCOCCNC(=O)CCc1ccc2n1[B-](F)(F)[N+]1=C(c3ccc[nH]3)C=CC1=C2 (centres unmarked) [Risperidone-2-NB590] | 0.93 | 0.98 | – |
| CCOC(=O)c1cc(C#N)c(N2CCC(C(=O)NS(=O)(=O)Cc3ccccc3/C=C/C(=O)NCCNC(=O)CCc3ccc4n3[B-](F)(F)[N+]3=C(c5ccc[nH]5)C=CC3=C4)CC2)nc1C [AZD1283-1-NB590] | – | – | NanoBRET Fold Response (LGR4, 0.1μM): 1.01; NanoBRET Fold Response (LGR4, 1μM): 0.97 |
| Cc1cc2c(s1)Nc1ccccc1N=C2N1CCN(CCCNC(=O)CCOCCOCCOCCOCCNC(=O)CCc2ccc3n2[B-](F)(F)[N+]2=C(c4ccc[nH]4)C=CC2=C3)CC1 [Olanzapine-a-2-NB590] | 0.98 | 1.30 | – |
| COc1ccccc1N1CCN(CCCCN2C(=O)c3ccc(CNC(=O)CCOCCNC(=O)c4ccc(CNC(=O)CCc5ccc6n5[B-](F)(F)[N+]5=C(c7ccc[nH]7)C=CC5=C6)cc4)cc3C2=O)CC1 [NAN-190-3-NB590] | 0.88 | 0.95 | – |
| CC(C)N(CC[C@H](c1ccccc1)c1cc(CCNC(=O)CCOCCOCCOCCOCCNC(=O)CCc2ccc3n2[B-](F)(F)[N+]2=C(c4ccc[nH]4)C=CC2=C3)ccc1O)C(C)C [Tolterodine-2-NB590] | 1.12 | 1.24 | – |
| CN(C)CCC=C1c2ccccc2CCc2ccc(C(=O)NCCNC(=O)CCOCCOCCOCCOCCNC(=O)CCc3ccc4n3[B-](F)(F)[N+]3=C(c5ccc[nH]5)C=CC3=C4)cc21 [Amitriptyline-b-2-NB590] | – | – | NanoBRET Fold Response (tracer at 0.1μM): 1.00; NanoBRET Fold Response (tracer at 1μM): 0.98 |
| O=C(CCOCCOCCOCCOCCNC(=O)CCc1ccc2n1[B-](F)(F)[N+]1=C(c3ccc[nH]3)C=CC1=C2)NCCCN1CCN(C2=Nc3ccccc3Oc3ccc(Cl)cc32)CC1 [Loxapine-a-2-NB590] | 0.97 | 1.04 | – |
| O=C(CCc1ccc2n1[B-](F)(F)[N+]1=C(c3ccc[nH]3)C=CC1=C2)NCCOCCOCCNC(=O)OCCOCCN1CCN(C2=Nc3ccccc3Sc3ccccc32)CC1 [Quetiapine-a-2-NB590] | 1.00 | 1.05 | – |
| COc1ccccc1N1CCN(CCCCN2C(=O)c3ccc(CNC(=O)CCOCCOCCOCCOCCNC(=O)CCc4ccc5n4[B-](F)(F)[N+]4=C(c6ccc[nH]6)C=CC4=C5)cc3C2=O)CC1 [NAN-190-2-NB590] | 1.09 | 0.99 | – |
| CN1CCN(C2=Nc3cc(Cl)ccc3N(CC(=O)NCCOCCOCCOCCOCCNC(=O)CCc3ccc4n3[B-](F)(F)[N+]3=C(c5ccc[nH]5)C=CC3=C4)c3ccccc32)CC1 [Clozapine-c-2-NB590] | – | – | NanoBRET Fold Response (LGR4, 0.1μM tracer): 0.96; NanoBRET Fold Response (LGR4, 1μM tracer): 1.03 |
| COc1ccc2[nH]c(-c3ccc(CNC(=O)CCOCCOCCOCCOCCNC(=O)CCc4ccc5n4[B-](F)(F)[N+]4=C(c6ccc[nH]6)C=CC4=C5)cc3)c(CCNC(C)=O)c2n1 [AzomelatoninICO9-2-NB590] | – | – | NanoBRET Fold Response (0.1μM tracer): 1.10; NanoBRET Fold Response (1μM tracer): 1.00 |
| O=C(CCOCCOCCOCCOCCNC(=O)CCc1ccc2n1[B-](F)(F)[N+]1=C(c3ccc[nH]3)C=CC1=C2)NCCCN1CCN(C2=Nc3cc(Cl)ccc3Nc3ccccc32)CC1 [Clozapine-a-2-NB590] | – | – | NanoBRET Fold Response (LGR4, 0.1μM tracer): 1.02; NanoBRET Fold Response (LGR4, 1μM tracer): 0.99 |
| CCCn1c(=O)c2[nH]c(-c3ccc(OCC(=O)NCCNC(=O)CCOCCNC(=O)c4ccc(CNC(=O)CCc5ccc6n5[B-](F)(F)[N+]5=C(c7ccc[nH]7)C=CC5=C6)cc4)cc3)nc2n(CCC)c1=O [XAC-3-NB590] | 1.02 | 0.99 | – |
| O=C(CCc1ccc2n1[B-](F)(F)[N+]1=C(c3ccc[nH]3)C=CC1=C2)NCc1ccc(C(=O)NCCOCCOCCNCC(O)COc2cccc3ccccc23)cc1 (centres unmarked) [Propranolol-3-NB590] | – | – | NanoBRET Fold Response (LGR4, 0.1μM): 0.97; NanoBRET Fold Response (LGR4, 1μM): 1.02 |
| O=C(CCc1ccc2n1[B-](F)(F)[N+]1=C(c3ccc[nH]3)C=CC1=C2)NCc1ccc(C(=O)NCCOCCC(=O)N[C@@H]2CC[C@@]3(O)[C@H]4Cc5ccc(O)c6c5[C@@]3(CCN4CC3CC3)[C@H]2O6)cc1 [Naltrexone-3-NB590] | 0.94 | 0.87 | – |
| N#CN=C(NCCCOc1cccc(CN2CCCCC2)c1)NCCNC(=O)CCOCCOCCOCCOCCNC(=O)CCc1ccc2n1[B-](F)(F)[N+]1=C(c3ccc[nH]3)C=CC1=C2 [Aminopotentidine-2-NB590] | 1.01 | 1.02 | – |
| COc1ccc2c(n1)c(CCNC(C)=O)cn2CCNC(=O)CCc1ccc2n1[B-](F)(F)[N+]1=C(c3ccc[nH]3)C=CC1=C2 [Azamelatonin-1-NB590] | – | – | NanoBRET Fold Response (0.1μM tracer): 1.20; NanoBRET Fold Response (1μM tracer): 0.99 |
| CC(C)N(CC[C@H](c1ccccc1)c1cc(CCNC(=O)c2ccc(CNC(=O)CCc3ccc4n3[B-](F)(F)[N+]3=C(c5ccc[nH]5)C=CC3=C4)cc2)ccc1O)C(C)C [Tolterodine-BZ-NB590] | 1.02 | 1.02 | – |
| CN1CCN(C2=Nc3cc(Cl)ccc3Nc3ccc(CNC(=O)CCOCCOCCOCCOCCNC(=O)CCc4ccc5n4[B-](F)(F)[N+]4=C(c6ccc[nH]6)C=CC4=C5)cc32)CC1 [Clozapine-b-2-NB590] | – | – | NanoBRET Fold Response (LGR4, 0.1μM tracer): 1.00; NanoBRET Fold Response (LGR4, 1μM tracer): 1.04 |
